ChEMBL document CHEMBL3588748, “Original 2-(3-Alkoxy-1H-pyrazol-1-yl)azines Inhibitors of Human Dihydroorotate Dehydrogenase (DHODH)” (J Med Chem, 2015)
Converted amounts (≈) assume the structure as drawn. The source made the active and inactive calls.

Key:
[1] = Half life in human microsomes; assay type: ADME, Microsome
[2] = system: Measles morbillivirus
Description: (§1) Antiviral activity against measles virus rMV2/Luc infected in HEK-293T cells assessed as inhibition of virus growth incubated for 24 hrs by firefly luciferase reporter gene assay

[3] = system: Plasmodium falciparum; assay: Antiplasmodial activity against Plasmodium falciparum 3D7 assessed as inhibition of parasite growth at 8.66 ug/ml by SYBR Green I dye based assay; assay type: functional, organism-based
[4] = biological target: T1, Dihydroorotate dehydrogenase (quinone), mitochondrial (Plasmodium falciparum (isolate 3D7)) (UniProt Q08210); assay: Inhibition of Plasmodium falciparum DHODH expressed in Escherichia coli by […]-based spectrophotometric method
T1 sequence (whole entry): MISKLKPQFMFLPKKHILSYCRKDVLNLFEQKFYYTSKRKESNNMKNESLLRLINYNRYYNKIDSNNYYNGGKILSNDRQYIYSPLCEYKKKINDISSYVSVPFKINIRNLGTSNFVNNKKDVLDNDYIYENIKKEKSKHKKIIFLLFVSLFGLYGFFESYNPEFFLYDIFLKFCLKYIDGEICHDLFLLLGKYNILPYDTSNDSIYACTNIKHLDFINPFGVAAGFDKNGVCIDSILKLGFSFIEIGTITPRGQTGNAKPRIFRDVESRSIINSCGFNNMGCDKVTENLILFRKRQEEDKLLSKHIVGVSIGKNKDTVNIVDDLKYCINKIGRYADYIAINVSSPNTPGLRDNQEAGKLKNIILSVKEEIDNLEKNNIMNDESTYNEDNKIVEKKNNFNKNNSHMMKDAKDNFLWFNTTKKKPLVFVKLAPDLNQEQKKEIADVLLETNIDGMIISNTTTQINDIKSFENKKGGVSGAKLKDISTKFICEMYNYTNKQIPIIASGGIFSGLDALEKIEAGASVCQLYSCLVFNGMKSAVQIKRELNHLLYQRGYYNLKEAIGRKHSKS

[5] = system: Plasmodium falciparum; assay: Antiplasmodial activity against Plasmodium falciparum 3D7 assessed as inhibition of parasite growth by SYBR Green I dye based assay; assay type: functional, organism-based
[6] = system: Measles morbillivirus; assay: microbe, parasite or virus in culture; conditions: rMV2/Luc, 24 h
Description: as §1

[7] = system: Jurkat; assay: Inhibition of cell proliferation of human Jurkat cells incubated for 72 hrs by Celltiter-Glo assay; assay type: functional, cell-based

| Structure (SMILES) | t1/2 [1] | pMIC50 [2] | growth inhibition (GI) [3] | inhibition [4] | IC50 [5] | MIC50 [6] | IC50 [7] |
| --- | --- | --- | --- | --- | --- | --- | --- |
| Cc1c(Oc2c(F)cccc2F)c(OC(C)C)nn1-c1ncc(C2CC2)cc1O | 38 min | 8.1 | inactive | – | – | – | – |
| Cc1ccc(-n2nc(OC(C)C)c(Oc3c(F)cccc3F)c2C)nn1 | – | – | – | inactive | 470 nM | – | – |
| Cc1c(Oc2c(F)cccc2F)c(OC(C)C)nn1-c1ccc(C2CC2)cn1 | 6 min | 9 | inactive | – | – | – | – |
| Cc1c(Oc2ccccc2F)c(OC(C)C)nn1-c1ccc(C2CC2)cn1 | 4 min | 7.4 | inactive | – | – | – | – |
| Cc1c(Oc2c(F)cccc2F)c(OC(C)C)nn1-c1ncc(Br)cc1F | 60 min | 6.9 | inactive | – | – | – | – |
| COc1ccc(-n2nc(OC(C)C)c(Oc3c(F)cccc3F)c2C)nn1 | 22 min | 7.1 | inactive | – | – | – | – |
| Cc1c(Oc2c(F)cccc2F)c(OC(C)C)nn1-c1ccc(C2CC2)nn1 | – | – | – | inactive | 330 nM | – | – |
| CCOc1nn(-c2ccc(Cl)cn2)c(C)c1Cc1ccccc1 | – | 5.5 | inactive | – | – | – | – |
| CCOc1nn(-c2ccc(C(=O)OC)cn2)c(C)c1Cc1ccccc1 | – | <5 | inactive | – | – | – | – |
| CCOc1nn(-c2cc(C)ccn2)c(C)c1Cc1ccccc1 | – | 5.4 | inactive | – | – | – | – |
| C/C(O)=C(\C#N)C(=O)Nc1ccc(C(F)(F)F)cc1 [TERIFLUNOMIDE] | – | – | inactive | – | – | 5 µM (≈ 1.35 µg/mL) | 60000 nM |
